Data taken from patent publication US20100190688A1, “Tetrapeptide analogs” (priority 2004, published 2010).
Counter-ions that a name gives are not always drawn. Like-named read-outs stand apart in the source and are kept apart here.

Experiments:
BIR3 domain of rat XIAP = BIR3 domain of rat XIAP (Rattus norvegicus, UniProt Q9R0I6); assay: Fluorescence polarization assay, binding to BIR3 from rat XIAP
Description: In fluorescence polarization assays a fluorescent probe is used. The binding affinity of compounds to BIR3 is measured by competitive displacement of a fluorescent probe using fluorescence polarization anisotropy. […] In other embodiments, the probe used is 6-(6-Hydroxy-3-oxo-3H-xanthen-9-yl)-N-(5-(2-methylamino-propionylamino)-6-oxo-6-[4-(1,2,3,4-tetrahydro-naphthalen-1-ylcarbamoyl)-thiazolidin-3-yl]-hexyl)-isophthalamic acid.
The binding affinity of compounds provided herein for rat BIR3 was measured by competitive displacement of a fluorescent probe using fluorescence polarization anisotropy. […] Control conditions were set up on each plate and include free probe 1 alone (5 nM), fully bound probe (5 μM BIR3+5 nM probe 1) and binding buffer blank. The-EC50 of binding was computed from a 4-parameter fit of the measured anisotropies using the SoftMax Pro 4.6 software package (Molecular Dynamics, Sunnyvale, Calif.).
Alternatively, probe 1 was substituted with probe 2: 6-(6-Hydroxy-3-oxo-3H-xanthen-9-yl)-N-{5-(2-methylamino-propionylamino)-6-oxo-6-[4-(1,2,3,4-tetrahydro-naphthalen-1-ylcarbamoyl)-thiazolidin-3-yl]-hexyl}-isophthalamic acid, for rat BIR3 and the concentrations of assay components changed. […] Controls were adjusted accordingly.

[1] = molecular target: T1, BIR3-mediated Caspase-9 inhibition (UniProt Q9R0I6); assay: Caspase-9 rescue assay (relief of BIR3-mediated Caspase-9 inhibition); type: biochemical, human Caspase-9; Rat or Chicken BIR3; details: average EC50, substrate Ac-LEHD-amc, pH 6.5
T1 construct: Nothing is printed for this assay
Description: Additionally the compounds and compositions can be evaluated for their ability to achieve relief of BIR3-mediated Caspase-9 inhibition by measuring Caspase-9 reactivation. The fluorogenic substrate Ac-LEHD-7-amido-4-methylcoumarin is used in these methods. EC50 values of tested BIR3 inhibitors or Caspase-9 rescuers is calculated from the percentage of Caspase-9 reactivation in the mixtures containing serially diluted concentrations of tested compound. Typically, 10-point curves are generated for such EC50 determination.
Relief of BIR3-mediated Caspase-9 inhibition by BIR3 inhibitors was assayed by measuring Caspase-9 reactivation using the fluorogenic substrate Ac-LEHD-7-amido-4-methylcoumarin. A truncated form of human Caspase-9 that lacks the N-terminal Caspase recruitment domain (EPro-Caspase-9 or p35/p12) was used in the assay. This form of the enzyme has the full catalytic activity and the same substrate specificity as the full-length protein in the Apaf-1/Cytochrome C/dATP/Caspase-9 reconstituted system. Rat or Chicken BIR3 was used in this assay. […] This mixture was incubated for 40 min to allow equilibration at 25° C., and the assay progression was subsequently followed by monitoring the formation of fluorescent 7-amido-4-methylcoumarin over time at 460 nm using an excitation wavelength of 360 nm. […] EC50 values of tested BIR3 inhibitors or Caspase-9 rescuers were calculated from the percentage of Caspase-9 reactivation in the mixtures containing serially diluted concentrations of tested compound.

Chain of BIR3 domain of rat XIAP (Q9R0I6 241-355): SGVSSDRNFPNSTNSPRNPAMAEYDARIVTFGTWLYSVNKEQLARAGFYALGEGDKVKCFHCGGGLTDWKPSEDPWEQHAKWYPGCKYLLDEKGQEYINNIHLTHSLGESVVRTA

Row | SMILES | EC50 (BIR3 domain of rat XIAP) | EC50 [1] | EC50 (BIR3 domain of rat XIAP; read-out: EC50 for binding to BIR3, average EC50, BIR3 domain of rat XIAP, competitive displacement of fluorescent probe)
1 | CNC(C)C(=O)NC(C(=O)N1CCCC1C(=O)NN(Cc1ccccc1)Cc1ccccc1)C(C)(C)C (stereo not shown) [N-{1-[2-(N′,N′-Dibenzyl-hydrazinocarbonyl)-pyrrolidine-1-carbonyl]-2,2-dimethyl-propyl}-2-methylamino-propionamide] | < 1000 nM | 1000 to 10000 nM | –
2 | CNC(C)C(=O)NC(C(=O)NC(C(=O)NC1CCCc2ccccc21)c1ccccc1)C(C)C (stereo not shown) [3-Methyl-2-(2-methylamino-propionylamino)-N-[phenyl-(1,2,3,4-tetrahydro-naphthalen-1-ylcarbamoyl)-methyl]-butyramide] | < 1000 nM | < 1000 nM | –
3 | CNC(C)C(=O)NC1CCc2cccc3c2N(C1=O)C(C(=O)NC1CCCc2ccccc21)C3 (stereo not shown) [5-(2-Methylamino-propionylamino)-4-oxo-1,2,4,5,6,7-hexahydro-azepino[3,2,1-hi]indole-2-carboxylic ′acid (1,2,3,4-tetrahydro-naphthalen-1-yl)-amide] | < 1000 nM | 1000 to 10000 nM | –
4 | CNC(C)C(=O)NC(C(=O)NC(CCNC(=O)OCc1ccccc1)C(=O)NC1CCCc2ccccc21)C(C)C (stereo not shown) [[3-[3-Methyl-2-(2-methylamino-propionylamino)-butyrylamino]-3-(1,2,3,4-tetrahydro-naphthalen-1-ylcarbamoyl)-propyl]-carbamic acid benzyl ester] | < 1000 nM | 1000 to 10000 nM | –
5 | CNC(C)C(=O)NC(C(=O)N1CS(=O)(=O)CC1C(=O)NC1CCCc2ccccc21)C(C)C (stereo not shown) [3-[3-Methyl-2-(2-methylamino-propionylamino)-butyryl]-1,1-dioxo-1l6-thiazolidine-4-carboxylic acid (1,2,3,4-tetrahydro-naphthalen-1-yl)-amide] | < 1000 nM | < 1000 nM | –
6 | CNC(C)C(=O)NC(C(=O)NC(CCCCNS(=O)(=O)c1ccc(OC)cc1)C(=O)NC1CCCc2ccccc21)C(C)C (stereo not shown) [6-(4-Methoxy-benzenesulfonylamino)-2-[3-methyl-2-(2-methylamino-propionylamino)-butyrylamino]-hexanoic acid (1,2,3,4-tetrahydro-naphthalen-1-yl)-amide] | < 1000 nM | < 1000 nM | –
7 | CNC(C)C(=O)NC(C(=O)N1CSC(C)(C)C1C(=O)NC1CCCc2ccccc21)C(C)C (stereo not shown) [5,5-Dimethyl-3-[3-methyl-2-(2-methylamino-propionylamino)-butyryl]-thiazolidine-4-carboxylic acid (1,2,3,4-tetrahydro-naphthalen-1-yl)-amide] | < 1000 nM | < 1000 nM | –
8 | CN[C@@H](C)C(=O)N[C@H]1CCCN2CC[C@@H](C(=O)N[C@@H]3CCCc4ccccc43)N2C1=O [8-(2-Methylamino-propionylamino)-9-oxo-hexahydro-pyrazolo[1,2-a][1,2]diazepine-1-carboxylic acid (1,2,3,4-tetrahydro-naphthalen-1-yl)-amide] | < 1000 nM | 1000 to 10000 nM | –
9 | CNC(C)C(=O)NC(C(=O)N1CC2(CC1C(=O)NC1CCCc3ccccc31)SCCS2)C(C)C (stereo not shown) [7-[3-Methyl-2-(2-methylamino-propionylamino)-butyryl]-1,4-dithia-7-aza-spiro[4.4]nonane-8-carboxylic acid (1,2,3,4-tetrahydro-naphthalen-1-yl)-amide] | < 1000 nM | 1000 to 10000 nM | –
10 | CN[C@@H](C)C(=O)N[C@H](C(=O)N1COC[C@H]1C(=O)N[C@@H]1CCCc2ccccc21)C(C)C [3-[3-Methyl-2-(2-methylamino-propionylamino)-butyryl]-oxazolidine-4-carboxylic acid (1,2,3,4-tetrahydro-naphthalen-1-yl)-amide] | < 1000 nM | < 1000 nM | –
11 | CNC(C)C(=O)NC(C(=O)NC(CCN)C(=O)NC1CCCc2ccccc21)C(C)C (stereo not shown) [N-[3-Amino-1-(1,2,3,4-tetrahydro-naphthalen-1-ylcarbamoyl)-propyl]-3-methyl-2-(2-methylamino-propionylamino)-butyramide] | < 1000 nM | 1000 to 10000 nM | –
12 | CCCNC(C)C(=O)NC(C(=O)N1CCCC1C(=O)NC1CCCc2ccccc21)C(C)(C)C (stereo not shown) [1-[3,3-Dimethyl-2-(2-propylamino-propionylamino)-butyryl]-pyrrolidine-2-carboxylic acid (1,2,3,4-tetrahydro-naphthalen-1-yl)-amide] | < 1000 nM | 1000 to 10000 nM | –
13 | CNC(C)C(=O)NC(C(=O)N1Cc2ccccc2CC1C(=O)NN(c1ccccc1)c1ccccc1)C(C)C (stereo not shown) [N-{1-[3-N′,N′-Diphenyl-hydrazinocarbonyl)-3,4-dihydro-1H-isoquinoline-2-carbonyl]-2-methyl-propyl}-2-methylamino-propionamide] | > 10000 nM | > 10000 nM | –
14 | CNC(C)C(=O)NC(C(=O)NC(CCCCNC(=O)OCc1ccccc1Cl)C(=O)NC1CCCc2ccccc21)C(C)C (stereo not shown) [[5-[3-Methyl-2-(2-methylamino-propionylamino)-butyrylamino]-5-(1,2,3,4-tetrahydro-naphthalen-1-ylcarbamoyl)-pentyl]-carbamic acid 2-chloro-benzyl ester] | < 1000 nM | < 1000 nM | –
15 | CNC(C)C(=O)NC(C(=O)NC(CCCCNS(=O)(=O)Cc1ccccc1)C(=O)NC1CCCc2ccccc21)C(C)C (stereo not shown) [2-[3-Methyl-2-(2-methylamino-propionylamino]-butyrylamino]-6-phenylmethanesulfonylamino-hexanoic acid (1,2,3,4-tetrahydro-naphthalen-1-yl)-amide] | < 1000 nM | < 1000 nM | –
16 | CNC(C)C(=O)NC(C(=O)N1CSCC1C(=O)NN(Cc1ccccc1)Cc1ccccc1)C(C)C (stereo not shown) [N-{1-[4-(N′,N′-Dibenzyl-hydrazinocarbonyl)-thiazolidine-3-carbonyl]-2-methyl-propyl}-2-methylamino-propionamide] | < 1000 nM | < 1000 nM | –
17 | CN[C@@H](C)C(=O)N[C@H](C(=O)N(C)[C@@H](CCCNC(=N)NS(=O)(=O)c1ccc(C)cc1)C(=O)N[C@@H]1CCCc2ccccc21)C(C)C [(S)-2-((S)-N,3-dimethyl-2-((S)-2-(methylamino)propanamido)butanamido)-N-((R)-1,2,3,4-tetrahydronaphthalen-1-yl)-5-(3-Htosylguanidino)pentanamide; 2,2,2-trifluoroacetic acid salt] | – | < 1000 nM | < 1000 nM
18 | CNC(C)C(=O)NC(C(=O)N1CCCC1C(=O)NCCC(c1ccccc1)c1ccccc1)C(C)(C)C (stereo not shown) [1-[3,3-Dimethyl-2-(2-methylamino-propionylamino)-butyryl]-pyrrolidine-2-carboxylic acid (3,3-diphenyl-propyl)-amide] | 1000 to 10000 nM | > 10000 nM | –
19 | CNC(C)C(=O)NC1CCC(=O)N2CCC(C(=O)NC3CCCc4ccccc43)N2C1=O (stereo not shown) [8-(2-Methylamino-propionylamino)-5,9-dioxo-hexahydro-pyrazolo[1,2-a][1,2]diazepine-1-carboxylic acid (1,2,3,4-tetrahydro-naphthalen-1-yl)-amide] | < 1000 nM | 1000 to 10000 nM | –
20 | CNC(C)C(=O)NC(C(=O)N(CCCCCNC(=O)OCc1ccccc1)CC(=O)NC1CCCc2ccccc21)C(C)C (stereo not shown) [(5-{[3-Methyl-2-(2-methylamino-propionylamino)-butyryl]-[(1,2,3,4-tetrahydro-naphthalen-1-ylcarbamoyl)-methyl]-amino}-pentyl)-carbamic acid benzyl ester] | < 1000 nM | 1000 to 10000 nM | –
